According to patent US8575163B2, “Pyrrolopyridinylpyrimidin-2-ylamine derivatives” (Merck Patent GmbH, priority 2009, dated 2013):

The molecules below were run against T1, PDK1 (Homo sapiens, UniProt O15530) (assay: Test for the inhibition of PDK1 (flashplate, 33P-ATP)). Settings: His6-PDK1 3.4 nM, 4 μM ATP, 30° C., 60 min.
T1 construct: His6 (N)
T1 sequence (O15530 51-556 limits assumed): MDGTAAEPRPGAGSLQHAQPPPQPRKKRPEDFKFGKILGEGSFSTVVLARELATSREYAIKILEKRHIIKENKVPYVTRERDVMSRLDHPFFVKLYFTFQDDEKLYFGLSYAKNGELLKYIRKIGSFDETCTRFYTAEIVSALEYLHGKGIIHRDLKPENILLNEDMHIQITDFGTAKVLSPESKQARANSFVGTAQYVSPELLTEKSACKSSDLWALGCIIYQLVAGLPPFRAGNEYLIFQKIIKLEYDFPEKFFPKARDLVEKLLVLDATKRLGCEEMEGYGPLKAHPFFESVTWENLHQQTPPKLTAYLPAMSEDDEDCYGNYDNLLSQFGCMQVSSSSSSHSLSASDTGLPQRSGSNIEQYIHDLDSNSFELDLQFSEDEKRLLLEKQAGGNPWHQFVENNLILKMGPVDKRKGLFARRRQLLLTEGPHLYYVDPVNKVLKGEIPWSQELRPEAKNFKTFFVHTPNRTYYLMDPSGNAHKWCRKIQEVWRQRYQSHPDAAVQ
Format: biochemical
Procedure: The experimental batches are carried out in a flashplate system with 384 wells/microtitration plate.
In each case, the PDK1 sample His6-PDK1(1-50)(3.4 nM), the PDK1 substrate biotin-bA-bA-[…] (400 nM), 4 μM ATP (with 0.2 μCi of ^33 P-ATP/well) and the test substance in 50 μl of conventional experimental solution per well are incubated at 30° C. for 60 min. The test substances are employed in corresponding concentrations (if desired in a dilution series). The control is carried out without test substance. The reaction is stopped using standard methods and washed. The activity of the kinase is measured via the incorporated radioactivity in top count. In order to determine the non-specific kinase reaction (blank value), the experimental batches are carried out in the presence of 100 nM staurosporin.
The radioactivity (decompositions per minute) of the blank value (no use of test substance in the presence of staurosporin) is subtracted from all other radioactivity values. The controls (kinase activity without test substance) are set equal to 100 percent and all other radioactivity values (after subtracting the blank value) are expressed set in relation thereto (for example in % of the control).
[formula] IC50 values (50% inhibition) are determined with the aid of statistics programmes, such as, for example, RS1.

SMILES | IC50
Cn1cc(-c2cnc3[nH]cc(-c4cc(C(C)(O)c5ccccc5F)nc(N)n4)c3c2)cn1 (racemic) [A102, 1-{2-amino-6-[5-(1-methyl-1H-pyrazol-4-yl)-1H-pyrrolo[2,3-b]pyridin-3-yl]-pyrimidin-4-yl}-1-(2-fluorophenyl)ethanol] | 10 nM
CCC(O)(c1ccncc1)c1cc(-c2c[nH]c3ncc(-c4cnn(C)c4)cc23)nc(N)n1 (single isomer, unassigned) [A20, 1-{2-amino-6-[5-(1-methyl-1H-pyrazol-4-yl)-1H-pyrrolo[2,3-b]pyridin-3-yl]-pyrimidin-4-yl}-1-pyridin-4-ylpropan-1-ol] | 2.2 nM
CCC(O)(c1ccncc1)c1cc(-c2c[nH]c3ncc(-c4cn[nH]c4)cc23)nc(N)n1 (single isomer, unassigned) [A43, 1-{2-amino-6-[5-(1H-pyrazol-4-yl)-1H-pyrrolo[2,3-b]pyridin-3-yl]pyrimidin-4-yl}-1-pyridin-4-ylpropan-1-ol] | 1.6 nM
CCC(O)(c1ccncc1)c1cc(-c2c[nH]c3ncc(-c4cn[nH]c4)cc23)nc(N)n1 (single isomer, unassigned) [A44, 1-{2-amino-6-[5-(1H-pyrazol-4-yl)-1H-pyrrolo[2,3-b]pyridin-3-yl]pyrimidin-4-yl}-1-pyridin-4-ylpropan-1-ol] | 17 nM
Cn1cc(-c2cnc3[nH]cc(-c4cc(C(C)(O)c5cccnc5)nc(N)n4)c3c2)cn1 (single isomer, unassigned) [A58, 1-{2-amino-6-[5-(1-methyl-1H-pyrazol-4-yl)-1H-pyrrolo[2,3-b]pyridin-3-yl]-pyrimidin-4-yl}-1-pyridin-3-ylethanol] | 85 nM
CNc1nc(-c2c[nH]c3ncc(-c4cnn(CCO)c4)cc23)cc(C(C)(O)c2ccccc2)n1 (single isomer, unassigned) [A91, 1-(6-{5-[1-(2-hydroxyethyl)-1H-pyrazol-4-yl]-1H-pyrrolo[2,3-b]pyridin-3-yl}-2-methylaminopyrimidin-4-yl)-1-phenylethanol] | 50 nM
CO[C@](C)(c1ccccc1)c1cc(-c2c[nH]c3ncc(-c4cnn(CCO)c4)cc23)nc(N)n1 (single isomer, unassigned) [A92] | 35 nM
CO[C@@](C)(c1ccccc1)c1cc(-c2c[nH]c3ncc(-c4cnn(CCO)c4)cc23)nc(N)n1 (single isomer, unassigned) [A93] | 48 nM

Further molecules by falling IC50, results first:

IC50 | SMILES
170 nM | CCC(O)(c1cccc(F)c1)c1cc(-c2c[nH]c3ncc(-c4ccc(CO)cc4)cc23)nc(N)n1 (single isomer, unassigned) [A33, 1-{2-amino-6-[5-(4-hydroxymethylphenyl)-1H-pyrrolo[2,3-b]pyridin-3-yl]-pyrimidin-4-yl}-1-(3-fluorophenyl)propan-1-ol]
36 nM | CCC(O)(c1ccncc1)c1cc(-c2c[nH]c3ncc(-c4cnn(C)c4)cc23)nc(N)n1 (single isomer, unassigned) [A21, 1-{2-amino-6-[5-(1-methyl-1H-pyrazol-4-yl)-1H-pyrrolo[2,3-b]pyridin-3-yl]-pyrimidin-4-yl}-1-pyridin-4-ylpropan-1-ol]
28 nM | Cn1cc(-c2cnc3[nH]cc(-c4cc(C(C)(O)c5cccnc5)nc(N)n4)c3c2)cn1 (single isomer, unassigned) [A57, 1-{2-amino-6-[5-(1-methyl-1H-pyrazol-4-yl)-1H-pyrrolo[2,3-b]pyridin-3-yl]-pyrimidin-4-yl}-1-pyridin-3-ylethanol]
21 nM | CNc1nc(-c2c[nH]c3ncc(-c4cnn(CCO)c4)cc23)cc(C(C)(O)c2ccccc2)n1 (single isomer, unassigned) [A90, 1-(6-{5-[1-(2-hydroxyethyl)-1H-pyrazol-4-yl]-1H-pyrrolo[2,3-b]pyridin-3-yl}-2-methylaminopyrimidin-4-yl)-1-phenylethanol]
18 nM | CC(O)(c1ccccc1)c1cc(-c2c[nH]c3ncc(-c4cnn(CCO)c4)cc23)nc(N)n1 (single isomer, unassigned) [A96, 1-(2-amino-6-{5-[1-(2-hydroxyethyl)-1H-pyrazol-4-yl]-1H-pyrrolo[2,3-b]-pyridin-3-yl}pyrimidin-4-yl)-1-phenylethanol]
